From patent US20220023271A1, “COMPOSITION FOR PREVENTING OR TREATING CELLULAR SENESCENCE-RELATED DISEASES COMPRISING ZOTAROLIMUS AS ACTIVE INGREDIENT” (RESEARCH COOPERATION FOUNDATION OF YEUNGNAM UNIVERSITY, priority 2018, published 2022)

Key:
Type in all cases: cell-based
[1] = system: human dermal fibroblasts (HDF); assay: CCK-8 cell growth analysis in human fibroblasts
Experimental: (§1) Each cell was treated in a serum-free culture solution containing 0.5 μM doxorubicin for 4 hours. After washing the cells with a serum-free culture solution, the cells were cultured for 4 days in a culture solution containing 10% FBS, and then cellular aging was confirmed by staining with senescence-associated beta galactosidase (SAβG). After dispensing 2×10^5 cells in a 100 mm culture dish, they were cultured in a 37° C., 5% CO2 incubator. When the cells grew to 80-90% in the culture dish, the cells were removed by treatment with trypsin-EDTA, and the number of cells was measured, and the cell population doubling time (PDT) was measured. After each sample was dissolved in DMSO, young cells, replicative senescent cells, and premature senescent cells treated with doxorubicin were treated with 100 nM zotarolimus, 100 nM rapamycin, 100 nM ABT263, respectively. […] Then, the absorbance was measured at 450 nm using a microplate reader. The degree of cell growth was expressed as a relative value for the absorbance of the control group treated with only DMSO as 100%. […]

[2] = system: human umbilical vascular endothelial cells (HUVEC); assay: SAβG activity staining in senescent vascular endothelial cells; conditions: 4 days
Experimental: Each cell was treated in a serum-free culture solution containing 0.5 μM doxorubicin for 4 hours. After washing the cells with a serum-free culture solution, the cells were cultured for 4 days in a culture solution containing 10% FBS, and then cellular aging was confirmed by staining with senescence-associated beta galactosidase (SAβG). After dispensing 2×10^5 cells in a 100 mm culture dish, they were cultured in a 37° C., 5% CO2 incubator. When the cells grew to 80-90% in the culture dish, the cells were removed by treatment with trypsin-EDTA, and the number of cells was measured, and the cell population doubling time (PDT) was measured. By successively subculturing the cells in the same process as described above, replication aging was induced. PDT of young fibroblasts was 36 hours, PDT of replicative senescent fibroblasts was 12 days, PDT of young vascular endothelial cells was 24 hours, and PDT of replicative senescent vascular endothelial cells was 7 days. After each sample was dissolved in DMSO, young cells, replicative senescent cells, and premature senescent cells treated with doxorubicin were treated with 100 nM zotarolimus, 100 nM rapamycin, 100 nM ABT263, respectively. After incubation for 4 days in a 37° C., 5% CO2 incubator, the degree of cell growth was confirmed by CCK-8 analysis, the degree of cellular aging was confirmed by senescence-related beta-galactosidase (SAβG) staining, The cells were washed with 1× phosphate buffer solution, and fixed with a phosphate buffer solution containing 3.7% (v/v) paraformaldehyde. After adding 1 mg/ml 5-bromo-4-chloro-3-indolyl-6-D-galactoside, 40 mM citric acid-sodium phosphate (pH 6.0), 5 mM potassium ferricyanide, 5 mM potassium ferrocyanide, 150 mM NaCl, and 2 mM MgCl2 solution, it was reacted at 37° C. for 18 hours. It was stained with eosin as a control stain. Cells stained blue in the cytoplasm were identified using an optical microscope. […]

[3] = system: human umbilical vascular endothelial cells (HUVEC); assay: CCK-8 cell growth analysis in vascular endothelial cells
Experimental: as §1

CO[C@H]1C[C@@H]2CC[C@@H](C)[C@@](O)(O2)C(=O)C(=O)N2CCCC[C@H]2C(=O)O[C@H]([C@H](C)C[C@@H]2CC[C@H](n3cnnn3)[C@H](OC)C2)CC(=O)[C@H](C)/C=C(\C)[C@@H](O)[C@@H](OC)C(=O)[C@H](C)C[C@H](C)/C=C/C=C/C=C/1C [zotarolimus]
cell growth (CCK-8) ([1]; premature senescent fibroblasts by doxorubicin, 100 nM, 4 days, vs DMSO): significantly decreased | cell growth with increasing concentration of zotarolimus ([1]; young vs replicative senescent fibroblasts, concentration-dependent): more markedly decreased in senescent cells compared to young cells | SAβG activity staining compared with rapamycin ([2]; premature senescent HUVEC by doxorubicin, 100 nM each): significantly decreased than rapamycin | SAβG activity staining ([2]; premature senescent HUVEC by doxorubicin, 100 nM, vs DMSO-treated group, p<0.01): significantly decreased | SAβG activity ([2]; replicative senescent HUVEC, 100 nM, vs DMSO-treated group and rapamycin-treated group): significantly decreased | cell growth (CCK-8) ([3]; premature senescent HUVEC by doxorubicin, 100 nM, 4 days, vs DMSO, p<0.01): significantly reduced | cell growth with increasing concentration of zotarolimus ([3]; young vs replicative senescent HUVEC): decreased compared to the young cells in a concentration-dependent manner
